The values below come from PMC8286840, “Identifying SARS-CoV-2 antiviral compounds by screening for small molecule inhibitors of Nsp3 papain-like protease” (Biochemical Journal, 2021).

Assay [1] concerns the target T1, SARS-CoV-2 PLpro (nsp3 1564–1878) (Severe acute respiratory syndrome coronavirus 2, UniProt P0DTD1). The assay is described as follows: biochemical. Details: FRET-quenched peptide (Pro3) cleavage by PLpro, 10 min pre-incubation, slope over 20 min, normalised to no-compound control. As to conditions: low concentration screen, read-out: % of control remaining.
Assay [2] deals with T1, SARS-CoV-2 PLpro (nsp3 1564–1878). The assay is described as follows: biochemical. As to conditions: high concentration screen, read-out: % of control remaining. The arrangement: FRET-quenched peptide (Pro3) cleavage by PLpro, 10 min pre-incubation, slope over 20 min, normalised to no-compound control.

Counter-ions that a name gives are not always drawn. Like-named read-outs stand apart in the source and are kept apart here.

Take `NC(=O)c1[nH]cnc1N` [5-Amino-3H-imidazole-4-Carboxamide]: the remaining activity at 1.25 µM in assay [1] (Well no.=7449) came to 103%. In assay [2] (Well no.=7449), the remaining activity at 3.75 µM amounted to 104%.
In the case of `Nc1ccc(O)c(C(=O)O)c1` [5-Aminosalicylic acid], the remaining activity at 1.25 µM in assay [1] (Well no.=2121) stood at 105%. In addition, the remaining activity at 3.75 µM in assay [2] (Well no.=2121) was found to be 104%.
As to `NCCCCC(=O)O` [5-Aminovaleric acid hydrochloride], the remaining activity at 1.25 µM in assay [1] (Well no.=147) is 103%. For the same compound, in assay [2] (Well no.=147), the remaining activity at 3.75 µM is 101%.
With `O=c1[nH]c(=O)n([C@H]2C[C@H](O)[C@@H](CO)O2)cc1Br` [5-BrdU], the remaining activity at 1.25 µM in assay [1] (Well no.=7862) is 96%. Also, the remaining activity at 3.75 µM in assay [2] (Well no.=7862) is 97.6%.
As for `O=c1[nH]c(=O)n([C@H]2C[C@H](O)[C@@H](CO)O2)cc1Br` [5-Bromo-2'-deoxyuridine], in assay [1] (Well no.=269), the remaining activity at 1.25 µM came to 95.6%. For the same compound, the remaining activity at 3.75 µM in assay [2] (Well no.=269) worked out at 98.4%.
As to `NCCc1c[nH]c2ccc(C(N)=O)cc12` [5-Carboxamidotryptamine maleate], the remaining activity at 1.25 µM in assay [1] (Well no.=533) came out at 104%. In assay [2] (Well no.=533), the remaining activity at 3.75 µM was found to be 104%.
Take `O=c1[nH]c(=O)n([C@H]2C[C@H](O)[C@@H](CO)O2)cc1Cl` [5-Chloro-2'-deoxyuridine]: in assay [1] (Well no.=7814), the remaining activity at 1.25 µM came out at 101%. Also, the remaining activity at 3.75 µM in assay [2] (Well no.=7814) worked out at 102%.
As to `O=C(O)c1cc2cc(F)ccc2[nH]1` [5-Fluoroindole-2-carboxylic acid], in assay [1] (Well no.=339), the remaining activity at 1.25 µM amounted to 99.4%. Further, the remaining activity at 3.75 µM in assay [2] (Well no.=339) is 97.9%.
On to `O=c1[nH]cc(F)c(=O)[nH]1` [5-Fluorouracil], for which the remaining activity at 1.25 µM in assay [1] (Well no.=661) was 97.2%; in assay [1] (Well no.=2116) it was 95.8%. Also, the results for the remaining activity at 3.75 µM in assay [2] (Well no.=661) and in assay [2] (Well no.=2116) were 98.8% and 98.2%, respectively.
Take `O=c1[nH]c(=O)n([C@@H]2O[C@H](CO)[C@@H](O)[C@H]2O)cc1F` [5-Fluorouridine]: the remaining activity at 1.25 µM in assay [1] (Well no.=7900) amounted to 95.4%. The remaining activity at 3.75 µM in assay [2] (Well no.=7900) was 91.5%.
Consider `N[C@@H](Cc1c[nH]c2ccc(O)cc12)C(=O)O` [5-Hydroxy-L-tryptophan], for which the remaining activity at 1.25 µM in assay [1] (Well no.=712) turned out to be 91.8%. The remaining activity at 3.75 µM in assay [2] (Well no.=712) stood at 98.5%.
For `O=C(O)Cc1c[nH]c2ccc(O)cc12` [5-Hydroxyindolacetic acid], the remaining activity at 1.25 µM in assay [1] (Well no.=758) was 91.7%. Also, the remaining activity at 3.75 µM in assay [2] (Well no.=758) stood at 92.8%.
On to `O=C(O)Cc1c[nH]c2ccc(O)cc12` [5-Hydroxyindole-3-acetic acid], for which the remaining activity at 1.25 µM in assay [1] (Well no.=5974) is 102%; in assay [1] (Well no.=7351) it was 103%. The remaining activity at 3.75 µM in assay [2] (Well no.=5974) came out at 101%; in assay [2] (Well no.=7351), 102%.
Consider `O=C(O)c1ccc(CO)o1` [5-Hydroxymethyl-2-furancarboxylic acid], for which the remaining activity at 1.25 µM in assay [1] (Well no.=6689) worked out at 97.9%. In addition, in assay [2] (Well no.=6689), the remaining activity at 3.75 µM stood at 98.1%.
For the compound `O=c1[nH]cc(CO)c(=O)[nH]1` [5-Hydroxymethyluracil], in assay [1] (Well no.=6499), the remaining activity at 1.25 µM came to 99.6%. Further, the remaining activity at 3.75 µM in assay [2] (Well no.=6499) turned out to be 101%.
With `Nc1ncnc2c1c(I)cn2[C@@H]1O[C@H](CO)[C@@H](O)[C@H]1O` [5-Iodotubercidin], the remaining activity at 1.25 µM in assay [1] (Well no.=2479) worked out at 100%. Besides, the remaining activity at 3.75 µM in assay [2] (Well no.=2479) amounted to 101%.
Take `COc1cccc2oc(-c3ccccc3)cc(=O)c12` [5-Methoxyflavone]: the remaining activity at 1.25 µM in assay [1] (Well no.=3453) turned out to be 92.1%. Besides, the remaining activity at 3.75 µM in assay [2] (Well no.=3453) worked out at 90.5%.
In the case of `Cc1cn([C@H]2C[C@H](O)[C@@H](CO)O2)c(=O)nc1N` [5-Methyl-2'-deoxycytidine], the remaining activity at 1.25 µM in assay [1] (Well no.=7493) amounted to 104%; in assay [1] (Well no.=7720), 98.8%. The remaining activity at 3.75 µM came to 105% in assay [2] (Well no.=7493) and 102% in assay [2] (Well no.=7720).
Take `Cc1cn([C@@H]2O[C@H](CO)[C@@H](O)[C@H]2O)c(=O)nc1N` [5-Methylcytidine]: the remaining activity at 1.25 µM in assay [1] (Well no.=6585) came out at 103%; in assay [1] (Well no.=8853) it was 100%. Also, the remaining activity at 3.75 µM in assay [2] (Well no.=6585) is 104%; in assay [2] (Well no.=8853) it was 88.8%.
On to `Cc1cn([C@@H]2O[C@H](CO)[C@@H](O)[C@H]2O)c(=O)[nH]c1=O` [5-Methyluridine], for which the remaining activity at 1.25 µM in assay [1] (Well no.=6213) turned out to be 101%; in assay [1] (Well no.=8891) it was 96.6%. Also, the remaining activity at 3.75 µM in assay [2] (Well no.=6213) was found to be 91.5%; in assay [2] (Well no.=8891), 98.5%.
Take `O=C(O)c1cc([N+](=O)[O-])ccc1NCCCc1ccccc1` [5-Nitro-2-(3-phenylpropylamino)benzoic acid]: the remaining activity at 1.25 µM in assay [1] (Well no.=1047) is 99.5%. Further, the remaining activity at 3.75 µM in assay [2] (Well no.=1047) came to 99.3%.
`CN(C)c1ccc(C2Nc3ccc4ccccc4c3C3=C2C(=O)CC(C)(C)C3)cc1Br` (centres unmarked) [5-[3-bromo-4-(dimethylamino)phenyl]-2,2-dimethyl-2,3,5,6-tetrahydrobenzo[a]phenanthridin-4(1H)-one]: the remaining activity at 1.25 µM in assay [1] (Well no.=5515) was determined as 106%. In addition, in assay [2] (Well no.=5515), the remaining activity at 3.75 µM stood at 106%.
Consider `Nc1ncn([C@@H]2O[C@H](CO)[C@@H](O)[C@H]2O)c(=O)n1` [5-azacytidine], for which the remaining activity at 1.25 µM in assay [1] (Well no.=155) was found to be 95.5%. Moreover, the remaining activity at 3.75 µM in assay [2] (Well no.=155) was 96.6%.
Regarding `OB1OCc2cc(F)ccc21` [5-fluoro-2,1-benzoxaborol-1(3H)-ol], the remaining activity at 1.25 µM in assay [1] (Well no.=5477) was determined as 103%. Moreover, the remaining activity at 3.75 µM in assay [2] (Well no.=5477) was determined as 109%.
For `C[C@H]1O[C@@H](n2cc(F)c(=O)[nH]c2=O)[C@H](O)[C@@H]1O` [5-fluoro-5'-deoxyuridine], the remaining activity at 1.25 µM in assay [1] (Well no.=663) came out at 102%. In addition, in assay [2] (Well no.=663), the remaining activity at 3.75 µM came out at 98.8%.
In the case of `COc1ccc(-c2cc(=O)c3c(O)c(OC)c(OC)cc3o2)cc1O` [5-hydroxy-2-(3-hydroxy-4-methoxyphenyl)-6,7-dimethoxy-4H-chromen-4-one], in assay [1] (Well no.=5983), the remaining activity at 1.25 µM was 98.6%. Moreover, the remaining activity at 3.75 µM in assay [2] (Well no.=5983) was found to be 95.3%.
Turning to `O=c1cc(CO)occ1O` [5-hydroxy-2-(hydroxymethyl)-4H-pyran-4-one], the remaining activity at 1.25 µM in assay [1] (Well no.=5437) was found to be 109%. In assay [2] (Well no.=5437), the remaining activity at 3.75 µM was found to be 113%.
For `CCCCCC(O)CCCC(=O)O` (centres unmarked) [5-hydroxydecanoic acid sodium], the remaining activity at 1.25 µM in assay [1] (Well no.=714) was 88.7%. For the same compound, the remaining activity at 3.75 µM in assay [2] (Well no.=714) worked out at 85.9%.
In the case of `COC(=O)C1=C(C#N)NC(C)=C(C(=O)OC(C)C)C1c1cccc([N+](=O)[O-])c1` (centres unmarked) [5-isopropyl 3-methyl 2-cyano-6-methyl-4-(3-nitrophenyl)-1,4-dihydro-3,5-pyridinedicarboxylate], the remaining activity at 1.25 µM in assay [1] (Well no.=6056) was 94%. Moreover, the remaining activity at 3.75 µM in assay [2] (Well no.=6056) was 89.3%.
